Measured values from ChEMBL document CHEMBL1147101, “Development and persistence of antimicrobial resistance in Pseudomonas aeruginosa: a longitudinal observation in mechanically ventilated patients” (Antimicrob Agents Chemother, 2007).
Activity calls are given as the source filed them. No cut-off for these calls is given here.

Tests used:
Format in all cases: functional, organism-based
Conditions in all cases: Trachea
Pseudomonas aeruginosa [1] = experiment: Antimicrobial activity against Pseudomonas aeruginosa 29F6 tracheal isolates from mechanically ventilated chronic respiratory insufficiency patient
Pseudomonas aeruginosa [2] = experiment: Antimicrobial activity against Pseudomonas aeruginosa 2F6 tracheal isolates from mechanically ventilated tuberculosis patient
Pseudomonas aeruginosa [3] = experiment: Antimicrobial activity against Pseudomonas aeruginosa 19E2 tracheal isolates from mechanically ventilated chronic respiratory insufficiency patient
Pseudomonas aeruginosa [4] = experiment: Antimicrobial activity against Pseudomonas aeruginosa 29G6 tracheal isolates from mechanically ventilated chronic respiratory insufficiency patient
Pseudomonas aeruginosa [5] = experiment: Antimicrobial activity against Pseudomonas aeruginosa P21.23 tracheal isolates from mechanically ventilated tuberculosis patient
Pseudomonas aeruginosa [6] = experiment: Antimicrobial activity against Pseudomonas aeruginosa 15G2 tracheal isolates from mechanically ventilated chronic respiratory insufficiency patient
Pseudomonas aeruginosa [7] = experiment: Antimicrobial activity against Pseudomonas aeruginosa 19B3 tracheal isolates from mechanically ventilated chronic respiratory insufficiency patient
Pseudomonas aeruginosa [8] = experiment: Antimicrobial activity against Pseudomonas aeruginosa 65.36-1 tracheal isolates from mechanically ventilated tuberculosis patient
Pseudomonas aeruginosa [9] = experiment: Antimicrobial activity against Pseudomonas aeruginosa 8B11 tracheal isolates from mechanically ventilated chronic respiratory insufficiency patient
Pseudomonas aeruginosa [10] = experiment: Antimicrobial activity against Pseudomonas aeruginosa 19D9 tracheal isolates from mechanically ventilated chronic respiratory insufficiency patient
Pseudomonas aeruginosa [11] = experiment: Antimicrobial activity against Pseudomonas aeruginosa 65.33-4 tracheal isolates from mechanically ventilated tuberculosis patient
Pseudomonas aeruginosa [12] = experiment: Antimicrobial activity against Pseudomonas aeruginosa 1B9 tracheal isolates from mechanically ventilated tuberculosis patient
Pseudomonas aeruginosa [13] = experiment: Antimicrobial activity against Pseudomonas aeruginosa 12B2 tracheal isolates from mechanically ventilated chronic respiratory insufficiency patient
Pseudomonas aeruginosa [14] = experiment: Antimicrobial activity against Pseudomonas aeruginosa 15H5 tracheal isolates from mechanically ventilated chronic respiratory insufficiency patient
Pseudomonas aeruginosa [15] = experiment: Antimicrobial activity against Pseudomonas aeruginosa 65.36-2 tracheal isolates from mechanically ventilated tuberculosis patient
Pseudomonas aeruginosa [16] = experiment: Antimicrobial activity against Pseudomonas aeruginosa 2C2 tracheal isolates from mechanically ventilated tuberculosis patient
Pseudomonas aeruginosa [17] = experiment: Antimicrobial activity against Pseudomonas aeruginosa 9A10 tracheal isolates from mechanically ventilated chronic respiratory insufficiency patient
Pseudomonas aeruginosa [18] = experiment: Antimicrobial activity against Pseudomonas aeruginosa 3E2 tracheal isolates from mechanically ventilated chronic respiratory insufficiency patient
Pseudomonas aeruginosa [19] = experiment: Antimicrobial activity against Pseudomonas aeruginosa 2A5 tracheal isolates from mechanically ventilated chronic respiratory insufficiency patient
Pseudomonas aeruginosa [20] = experiment: Antimicrobial activity against Pseudomonas aeruginosa 8C4 tracheal isolates from mechanically ventilated chronic respiratory insufficiency patient
Pseudomonas aeruginosa [21] = experiment: Antimicrobial activity against Pseudomonas aeruginosa 24E5 tracheal isolates from mechanically ventilated chronic respiratory insufficiency patient
Pseudomonas aeruginosa [22] = experiment: Antimicrobial activity against Pseudomonas aeruginosa 2A5 tracheal isolates from mechanically ventilated tuberculosis patient
Pseudomonas aeruginosa [23] = experiment: Antimicrobial activity against Pseudomonas aeruginosa 65.68-1 tracheal isolates from mechanically ventilated tuberculosis patient
Pseudomonas aeruginosa [24] = experiment: Antimicrobial activity against Pseudomonas aeruginosa 13E1 tracheal isolates from mechanically ventilated chronic respiratory insufficiency patient
Pseudomonas aeruginosa [25] = experiment: Antimicrobial activity against Pseudomonas aeruginosa 19C7 tracheal isolates from mechanically ventilated chronic respiratory insufficiency patient
Pseudomonas aeruginosa [26] = experiment: Antimicrobial activity against Pseudomonas aeruginosa 9A1 tracheal isolates from mechanically ventilated chronic respiratory insufficiency patient
Pseudomonas aeruginosa [27] = experiment: Antimicrobial activity against Pseudomonas aeruginosa 10A6 tracheal isolates from mechanically ventilated chronic respiratory insufficiency patient
Pseudomonas aeruginosa [28] = experiment: Antimicrobial activity against Pseudomonas aeruginosa 3D1 tracheal isolates from mechanically ventilated chronic respiratory insufficiency patient
Pseudomonas aeruginosa [29] = experiment: Antimicrobial activity against Pseudomonas aeruginosa 1A9 tracheal isolates from mechanically ventilated tuberculosis patient
Pseudomonas aeruginosa [30] = experiment: Antimicrobial activity against Pseudomonas aeruginosa 65.68-4 tracheal isolates from mechanically ventilated tuberculosis patient
Pseudomonas aeruginosa [31] = experiment: Antimicrobial activity against Pseudomonas aeruginosa 2A9 tracheal isolates from mechanically ventilated tuberculosis patient
Pseudomonas aeruginosa [32] = experiment: Antimicrobial activity against Pseudomonas aeruginosa 9A3 tracheal isolates from mechanically ventilated chronic respiratory insufficiency patient
Pseudomonas aeruginosa [33] = experiment: Antimicrobial activity against Pseudomonas aeruginosa 2C1 tracheal isolates from mechanically ventilated tuberculosis patient
Pseudomonas aeruginosa [34] = experiment: Antimicrobial activity against Pseudomonas aeruginosa 29G8 tracheal isolates from mechanically ventilated chronic respiratory insufficiency patient
Pseudomonas aeruginosa [35] = experiment: Antimicrobial activity against Pseudomonas aeruginosa 8A2 tracheal isolates from mechanically ventilated chronic respiratory insufficiency patient
Pseudomonas aeruginosa [36] = experiment: Antimicrobial activity against Pseudomonas aeruginosa 2A3 tracheal isolates from mechanically ventilated tuberculosis patient
Pseudomonas aeruginosa [37] = experiment: Antimicrobial activity against Pseudomonas aeruginosa 2A6 tracheal isolates from mechanically ventilated tuberculosis patient
Pseudomonas aeruginosa [38] = experiment: Antimicrobial activity against Pseudomonas aeruginosa 22D6 tracheal isolates from mechanically ventilated chronic respiratory insufficiency patient
Pseudomonas aeruginosa [39] = experiment: Antimicrobial activity against Pseudomonas aeruginosa 65.33-2 tracheal isolates from mechanically ventilated tuberculosis patient
Pseudomonas aeruginosa [40] = experiment: Antimicrobial activity against Pseudomonas aeruginosa 5H6 tracheal isolates from mechanically ventilated chronic respiratory insufficiency patient
Pseudomonas aeruginosa [41] = experiment: Antimicrobial activity against Pseudomonas aeruginosa 10A9 tracheal isolates from mechanically ventilated chronic respiratory insufficiency patient
Pseudomonas aeruginosa [42] = experiment: Antimicrobial activity against Pseudomonas aeruginosa 8A12 tracheal isolates from mechanically ventilated chronic respiratory insufficiency patient
Pseudomonas aeruginosa [43] = experiment: Antimicrobial activity against Pseudomonas aeruginosa 19E9 tracheal isolates from mechanically ventilated chronic respiratory insufficiency patient
Pseudomonas aeruginosa [44] = experiment: Antimicrobial activity against Pseudomonas aeruginosa P21.21 tracheal isolates from mechanically ventilated tuberculosis patient
Pseudomonas aeruginosa [45] = experiment: Antimicrobial activity against Pseudomonas aeruginosa 29G7 tracheal isolates from mechanically ventilated chronic respiratory insufficiency patient
Pseudomonas aeruginosa [46] = experiment: Antimicrobial activity against Pseudomonas aeruginosa 19B6 tracheal isolates from mechanically ventilated chronic respiratory insufficiency patient
Pseudomonas aeruginosa [47] = experiment: Antimicrobial activity against Pseudomonas aeruginosa 5G3 tracheal isolates from mechanically ventilated chronic respiratory insufficiency patient
Pseudomonas aeruginosa [48] = experiment: Antimicrobial activity against Pseudomonas aeruginosa 2A7 tracheal isolates from mechanically ventilated tuberculosis patient
Pseudomonas aeruginosa [49] = experiment: Antimicrobial activity against Pseudomonas aeruginosa 12A7 tracheal isolates from mechanically ventilated chronic respiratory insufficiency patient
Pseudomonas aeruginosa [50] = experiment: Antimicrobial activity against Pseudomonas aeruginosa 22D2 tracheal isolates from mechanically ventilated chronic respiratory insufficiency patient
Pseudomonas aeruginosa [51] = experiment: Antimicrobial activity against Pseudomonas aeruginosa 9B5 tracheal isolates from mechanically ventilated chronic respiratory insufficiency patient
Pseudomonas aeruginosa [52] = experiment: Antimicrobial activity against Pseudomonas aeruginosa 65.68-2 tracheal isolates from mechanically ventilated tuberculosis patient
Pseudomonas aeruginosa [53] = experiment: Antimicrobial activity against Pseudomonas aeruginosa 2A2 tracheal isolates from mechanically ventilated tuberculosis patient
Pseudomonas aeruginosa [54] = experiment: Antimicrobial activity against Pseudomonas aeruginosa 65.36-4 tracheal isolates from mechanically ventilated tuberculosis patient
Pseudomonas aeruginosa [55] = experiment: Antimicrobial activity against Pseudomonas aeruginosa 5F2 tracheal isolates from mechanically ventilated chronic respiratory insufficiency patient
Pseudomonas aeruginosa [56] = experiment: Antimicrobial activity against Pseudomonas aeruginosa 12A3 tracheal isolates from mechanically ventilated chronic respiratory insufficiency patient
Pseudomonas aeruginosa [57] = experiment: Antimicrobial activity against Pseudomonas aeruginosa 3D10 tracheal isolates from mechanically ventilated chronic respiratory insufficiency patient
Pseudomonas aeruginosa [58] = experiment: Antimicrobial activity against Pseudomonas aeruginosa 3B1 tracheal isolates from mechanically ventilated tuberculosis patient
Pseudomonas aeruginosa [59] = experiment: Antimicrobial activity against Pseudomonas aeruginosa 10B3 tracheal isolates from mechanically ventilated chronic respiratory insufficiency patient
Pseudomonas aeruginosa [60] = experiment: Antimicrobial activity against Pseudomonas aeruginosa 24G1 tracheal isolates from mechanically ventilated chronic respiratory insufficiency patient

With `CC(C)(O/N=C(\C(=O)N[C@@H]1C(=O)N2C(C(=O)[O-])=C(C[n+]3ccccc3)CS[C@H]12)c1csc(N)n1)C(=O)O` the Activity (Pseudomonas aeruginosa [1]) was “Active”, the Activity (Pseudomonas aeruginosa [2]) was “inactive” and the Activity (Pseudomonas aeruginosa [3]) was “Active”. The Activity (Pseudomonas aeruginosa [4]) was “Active”, the Activity (Pseudomonas aeruginosa [5]) was “Active” and the Activity (Pseudomonas aeruginosa [6]) was “Active”. For the same molecule, the Activity (Pseudomonas aeruginosa [7]) was “Active”, the Activity (Pseudomonas aeruginosa [8]) was “Active” and the Activity (Pseudomonas aeruginosa [9]) was “Active”. The Activity (Pseudomonas aeruginosa [10]) was “Active”, the Activity (Pseudomonas aeruginosa [11]) was “Active” and the Activity (Pseudomonas aeruginosa [12]) was “inactive”. The Activity (Pseudomonas aeruginosa [13]) was “Active”, the Activity (Pseudomonas aeruginosa [14]) was “Active” and the Activity (Pseudomonas aeruginosa [15]) was “Active”. The Activity (Pseudomonas aeruginosa [16]) was “Active”, the Activity (Pseudomonas aeruginosa [17]) was “Active” and the Activity (Pseudomonas aeruginosa [18]) was “Active”. The Activity (Pseudomonas aeruginosa [19]) was “Active”, the Activity (Pseudomonas aeruginosa [20]) was “Active” and the Activity (Pseudomonas aeruginosa [21]) was “Active”. For the same molecule, the Activity (Pseudomonas aeruginosa [22]) was “Active”, the Activity (Pseudomonas aeruginosa [23]) was “Active” and the Activity (Pseudomonas aeruginosa [24]) was “Active”. For the same molecule, the Activity (Pseudomonas aeruginosa [25]) was “Active”, the Activity (Pseudomonas aeruginosa [26]) was “Active” and the Activity (Pseudomonas aeruginosa [27]) was “Active”. The Activity (Pseudomonas aeruginosa [28]) was “Active”, the Activity (Pseudomonas aeruginosa [29]) was “inactive” and the Activity (Pseudomonas aeruginosa [30]) was “Active”. The Activity (Pseudomonas aeruginosa [31]) was “inactive”, the Activity (Pseudomonas aeruginosa [32]) was “Active” and the Activity (Pseudomonas aeruginosa [33]) was “inactive”. For the same molecule, the Activity (Pseudomonas aeruginosa [34]) was “Active”, the Activity (Pseudomonas aeruginosa [35]) was “Active” and the Activity (Pseudomonas aeruginosa [36]) was “Active”. The Activity (Pseudomonas aeruginosa [37]) was “inactive”, the Activity (Pseudomonas aeruginosa [38]) was “Active” and the Activity (Pseudomonas aeruginosa [39]) was “Active”. For the same molecule, the Activity (Pseudomonas aeruginosa [40]) was “Active”, the Activity (Pseudomonas aeruginosa [41]) was “Active” and the Activity (Pseudomonas aeruginosa [42]) was “Active”. For the same molecule, the Activity (Pseudomonas aeruginosa [43]) was “Active”, the Activity (Pseudomonas aeruginosa [44]) was “Active” and the Activity (Pseudomonas aeruginosa [45]) was “Active”. The Activity (Pseudomonas aeruginosa [46]) was “Active”, the Activity (Pseudomonas aeruginosa [47]) was “Active” and the Activity (Pseudomonas aeruginosa [48]) was “inactive”. The Activity (Pseudomonas aeruginosa [49]) was “Active”, the Activity (Pseudomonas aeruginosa [50]) was “Active” and the Activity (Pseudomonas aeruginosa [51]) was “Active”. The Activity (Pseudomonas aeruginosa [52]) was “Active”, the Activity (Pseudomonas aeruginosa [53]) was “Active” and the Activity (Pseudomonas aeruginosa [54]) was “inactive”. For the same molecule, the Activity (Pseudomonas aeruginosa [55]) was “Active”, the Activity (Pseudomonas aeruginosa [56]) was “Active” and the Activity (Pseudomonas aeruginosa [57]) was “Active”. The Activity (Pseudomonas aeruginosa [58]) was “Active”, the Activity (Pseudomonas aeruginosa [59]) was “Active” and the Activity (Pseudomonas aeruginosa [60]) was “Active”.
